From the supplement of paper PMC4862054

Assays:
Settings in all cases: incubation time: 72 h
BT-474 [1] = assay: normalised response (% of control), CellTox Green; higher = less cell death (100 = DMSO, 0 = benzethonium chloride kill control)
How it was run: (§1)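 Each entry is the normalised signal at a single concentration within a series. The series comprised 5 concentrations in 10-fold steps over a compound-specific 10,000-fold range, placed in 384-well plates into which breast cancer cell lines were seeded as 20 µl suspension and incubated 72 h. CellTox Green (485/520 nm) fluorescence and then CellTiter-Glo luminescence were read, with signals normalised per plate to 0.1 % DMSO (100) and a positive kill control (0).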

BT-549 [2] = assay: as above
How it was run: as §1

CAL-120 [3] = assay: as above
How it was run: as §1

CAL-148 [4] = assay: as above
How it was run: as §1

CAL-51 [5] = assay: as above
How it was run: as §1

CAL-85-1 [6] = assay: as above
How it was run: as §1

DU-4475 [7] = assay: as above
How it was run: as §1

HCC1143 [8] = assay: as above
How it was run: as §1

HCC1599 [9] = assay: as above
How it was run: as §1

HCC1937 [10] = assay: as above
How it was run: as §1

HDQ-P1 [11] = assay: as above
How it was run: as §1

MCF-10A [12] = assay: as above
How it was run: as §1

MDA-MB-231 [13] = assay: as above
How it was run: as §1

MDA-MB-436 [14] = assay: as above
How it was run: as §1

MDA-MB-453 [15] = assay: as above
How it was run: as §1

MDA-MB-468 [16] = assay: as above
How it was run: as §1

MFM-223 [17] = assay: as above
How it was run: as §1

BT-474 [18] = assay: normalised response (% of control), CellTiter-Glo; higher = more viable cells (100 = DMSO, 0 = benzethonium chloride kill control)
How it was run: as §1

BT-549 [19] = assay: as above
How it was run: as §1

CAL-120 [20] = assay: as above
How it was run: as §1

CAL-148 [21] = assay: as above
How it was run: as §1

CAL-51 [22] = assay: as above
How it was run: as §1

CAL-85-1 [23] = assay: as above
How it was run: as §1

DU-4475 [24] = assay: as above
How it was run: as §1

HCC1143 [25] = assay: as above
How it was run: as §1

HCC1599 [26] = assay: as above
How it was run: as §1

HCC1937 [27] = assay: as above
How it was run: as §1

HDQ-P1 [28] = assay: as above
How it was run: as §1

Hs578T [29] = assay: as above
How it was run: as §1

MCF-10A [30] = assay: as above
How it was run: as §1

MDA-MB-231 [31] = assay: as above
How it was run: as §1

MDA-MB-436 [32] = assay: as above
How it was run: as §1

MDA-MB-453 [33] = assay: as above
How it was run: as §1

MDA-MB-468 [34] = assay: as above
How it was run: as §1

MFM-223 [35] = assay: as above
How it was run: as §1

SK-BR-3 = assay: as above
How it was run: as §1

Hs578T [36] = assay: normalised response (% of control), CellTox Green; higher = less cell death (100 = DMSO, 0 = benzethonium chloride kill control)
How it was run: as §1

SMILES	normalised response (BT-474 [1])	normalised response (BT-549 [2])	normalised response (CAL-120 [3])	normalised response (CAL-148 [4])	normalised response (CAL-51 [5])	normalised response (CAL-85-1 [6])	normalised response (DU-4475 [7])	normalised response (HCC1143 [8])	normalised response (HCC1599 [9])	normalised response (HCC1937 [10])	normalised response (HDQ-P1 [11])	normalised response (MCF-10A [12])	normalised response (MDA-MB-231 [13])	normalised response (MDA-MB-436 [14])	normalised response (MDA-MB-453 [15])	normalised response (MDA-MB-468 [16])	normalised response (MFM-223 [17])	normalised response (BT-474 [18])	normalised response (BT-549 [19])	normalised response (CAL-120 [20])	normalised response (CAL-148 [21])	normalised response (CAL-51 [22])	normalised response (CAL-85-1 [23])	normalised response (DU-4475 [24])	normalised response (HCC1143 [25])	normalised response (HCC1599 [26])	normalised response (HCC1937 [27])	normalised response (HDQ-P1 [28])	normalised response (Hs578T [29])	normalised response (MCF-10A [30])	normalised response (MDA-MB-231 [31])	normalised response (MDA-MB-436 [32])	normalised response (MDA-MB-453 [33])	normalised response (MDA-MB-468 [34])	normalised response (MFM-223 [35])	normalised response (SK-BR-3)	normalised response (Hs578T [36])
CCc1c(C(=O)C(N)=O)c2c(OCC(=O)O)cccc2n1Cc1ccccc1 [Varespladib] (1000 nM)	99.9%	102%	106%	100%	110%	114%	102%	108%	99.3%	105%	114%	97.7%	103%	103%	109%	105%	97%	92.6%	94.2%	98.2%	104%	106%	97.6%	101%	106%	96.4%	100%	100%	102%	104%	103%	94%	99.8%	100%	95.8%	100%	–
Cc1c(C(=O)Nc2ccc(N3C[C@@H](C)O[C@@H](C)C3)nc2)cccc1-c1ccc(OC(F)(F)F)cc1 [Erismodegib] (1000 nM)	103%	136%	99.7%	110%	97.5%	104%	97.6%	110%	103%	74.5%	99.7%	107%	72.4%	94.7%	101%	111%	101%	81.7%	90.5%	96.5%	98.5%	66.1%	93%	98.9%	89.8%	101%	97.9%	91.7%	101%	85.6%	94.2%	84.6%	79.2%	93.7%	84.9%	81.7%	–
CC(C)(C)Cn1c(N)nc2ccc(-c3[nH]c(C(C)(C)C)nc3-c3ccc(F)cc3)nc21 (1000 nM)	101%	111%	81.1%	99.9%	94%	90.7%	105%	–	84.3%	–	–	77.7%	110%	78.8%	101%	113%	99.5%	101%	93.7%	96.6%	93.1%	103%	104%	94.8%	98%	111%	93.6%	94.6%	97.7%	89.7%	100%	102%	92.8%	93.4%	97.9%	97.7%	80.6%
CN1CCc2c(c3ccccc3n2Cc2ccc(C(=O)NO)cc2)C1 [Tubastatin A] (10 nM)	–	–	–	–	–	–	–	–	–	–	–	–	–	–	–	–	–	92.7%	96.3%	96.1%	107%	67.6%	107%	100%	95.2%	92.8%	99.6%	99.4%	102%	101%	92.4%	95.2%	94.1%	102%	102%	93.8%	–
Cc1c(N)nc([C@H](CC(N)=O)NC[C@H](N)C(N)=O)nc1C(=O)N[C@H](C(=O)N[C@H](C)[C@@H](O)[C@H](C)C(=O)N[C@H](C(=O)NCCc1nc(-c2nc(C(=O)NCCC[S+](C)C)cs2)cs1)[C@@H](C)O)[C@@H](OC1OC(CO)C(O)C(O)C1OC1OC(CO)C(O)C(OC(N)=O)C1O)c1cnc[nH]1 (some centres not stated) [Bleomycin] (10 nM)	–	–	–	–	–	–	–	–	–	–	–	–	–	–	–	–	–	95.7%	87.6%	97.3%	85%	97.5%	96.1%	98.1%	98.9%	97.7%	93.3%	97.6%	99.8%	100%	96.3%	94.2%	104%	98%	101%	106%	–
CC[C@@H]1C(=O)N(C)c2cnc(Nc3ccc(C(=O)N[C@H]4CC[C@H](N5CCN(CC6CC6)CC5)CC4)cc3OC)nc2N1C(C)C [Volasertib] (1 nM)	–	–	–	–	–	–	–	–	–	–	–	–	–	–	–	–	–	89.7%	102%	100%	105%	111%	102%	100%	99.9%	113%	99.2%	92.5%	103%	102%	97.6%	100%	77.1%	90.1%	98.3%	98.5%	–
CC(C)n1nc(-c2ccc3oc(N)nc3c2)c2c(N)ncnc21 [INK128] (1 nM)	–	–	–	–	–	–	–	–	–	–	–	–	–	–	–	–	–	88.9%	89%	92.2%	93.2%	116%	96.7%	94.1%	94.5%	100%	96.9%	95.8%	98.9%	96.2%	95.9%	96.5%	88.3%	93.6%	90.1%	85.9%	–
CC(C)C(=O)Nc1ccc([N+](=O)[O-])c(C(F)(F)F)c1 [Flutamide] (10 nM)	–	–	–	–	–	–	–	–	–	–	–	–	–	–	–	–	–	101%	96.4%	97.6%	92.1%	126%	96.2%	102%	98.6%	105%	102%	98.4%	98.6%	103%	95.7%	99.8%	109%	96%	99.6%	124%	–
CN1CCc2c(c3ccccc3n2Cc2ccc(C(=O)NO)cc2)C1 [Tubastatin A] (1 nM)	–	–	–	–	–	–	–	–	–	–	–	–	–	–	–	–	–	97.3%	104%	92.7%	94.9%	88.4%	103%	102%	98%	101%	97.6%	96.4%	97.6%	99.8%	96.8%	87.7%	103%	99.5%	101%	99.3%	–
CC(C)NC[C@@H](C(=O)N1CCN(c2ncnc3c2[C@H](C)C[C@H]3O)CC1)c1ccc(Cl)cc1 [GDC-0068] (1 nM)	–	–	–	–	–	–	–	–	–	–	–	–	–	–	–	–	–	99.3%	97.7%	95.9%	95.3%	71%	98.9%	99.9%	97.3%	100%	102%	99.8%	101%	106%	103%	96.9%	102%	94.1%	98.9%	103%	–
CO[C@H]1C[C@@H]2CC[C@@H](C)[C@@](O)(O2)C(=O)C(=O)N2CCCC[C@H]2C(=O)O[C@H]([C@H](C)C[C@@H]2CC[C@@H](O)[C@H](OC)C2)CC(=O)[C@H](C)/C=C(\C)[C@@H](O)[C@@H](OC)C(=O)[C@H](C)C[C@H](C)/C=C/C=C/C=C/1C [Sirolimus] (0.01 nM)	–	–	–	–	–	–	–	–	–	–	–	–	–	–	–	–	–	99.1%	97.6%	95.9%	91.1%	87.1%	89.9%	104%	92.4%	98.3%	105%	100%	94.7%	106%	93.6%	103%	103%	94.1%	95.5%	106%	–
Cn1cc(C[C@@H](N)C(=O)O)c2ccccc21 [1-methyl-D-tryptophan] (0.5 nM)	–	–	–	–	–	–	–	–	–	–	–	–	–	–	–	–	–	96.1%	101%	95.6%	87.4%	113%	94.3%	101%	96.5%	102%	97.6%	105%	99.3%	97.1%	95.2%	103%	99.4%	98%	92.8%	93%	–
